# From patent US12441703B2, “Carboxamides as modulators of sodium channels” (VERTEX PHARMACEUTICALS INCORPORATED, priority 2019, dated 2025)
# pIC50: −log10 of the molar value.
# Target: human NaV 1.8 (Homo sapiens, UniProt Q9Y5Y9)
# Experiment: E-VIPR assay for detecting and measuring NaV inhibition properties
# Assay type: cell-based
# Settings: E-VIPR assay conducted in the presence of human serum; HEK cells expressing truncated human NaV 1.8; read-out: IC50
# Description: Sodium ion channels are voltage-dependent proteins that can be activated by inducing membrane voltage changes by applying electric fields. The electrical stimulation instrument and methods of use, referred to as E-VIPR, are described in International Publication No. WO 2002/008748 A3 and C.-J. Huang et al. Characterization of voltage-gated sodium channel blockers by electrical stimulation and fluorescence detection of membrane potential, 24 Nature Biotech. 439-46 (2006), both of which are incorporated by reference in their entirety. The instrument comprises a microtiter plate handler, an optical system for exciting the coumarin dye while simultaneously recording the coumarin and oxonol emissions, a waveform generator, a current- or voltage-controlled amplifier, and parallel electrode pairs that are inserted into assay plate wells. Under integrated computer control, this instrument passes user-programmed electrical stimulus protocols to cells within the wells of the microtiter plate.
# 16-20 hours prior to running the assay on E-VIPR, HEK cells expressing a truncated form of human NaV 1.8 with full channel activity were seeded into microtiter 384-well plates, pre-coated with matrigel, at a density of 25,000 cells per well. 2.5-5% KIR2.1 Bacmam virus was added to the final cell suspension before seeding into cell plates. HEK cells were grown in Dulbecco's Modified Eagle's Medium (DMEM) supplemented with 10% FBS (Fetal Bovine Serum, qualified; Sigma #F4135), 1% NEAA (Non-Essential Amino Acids, Gibco #11140), 1% HEPES (Gibco #15630), 1% Pen-Strep (Penicillin-Streptomycin; Gibco #15140) and 5 μg/ml Blasticidin (Gibco #R210-01). Cells were expanded in vented cap cell culture flasks, with 90-95% humidity and 5% CO2.
# Compound Loading Buffer (2× concentration): Na/TMA Cl Bath1 Buffer containing HS (omitted in experiments run in the absence of human serum (HS)) 50%, VABSC-1 1 mM, BSA 0.2 mg/ml (in Bath-1), KCl 9 mM, DMSO 0.75%.
# • 1) To reach the final concentration in each well, 400 nL of each compound was pre-spotted (in neat DMSO) into polypropylene compound plates at 250× desired final concentration from an intermediate stock concentration of 0.075 mM, in an 11 point dose response, 3-fold dilution, resulting in a top dose of 300 nM final concentration in the cell plate. Vehicle control (neat DMSO), and positive control (an established NaV1.8 inhibitor, 25 μM final in assay in DMSO) were added manually to the outermost columns of each plate respectively. The compound plate was backfilled with 45 μL per well of Compound Loading Buffer resulting in a 250 fold dilution of compound following a 1:1 transfer of compound into the cell plate (see Step 6). Final DMSO concentration for all wells in the assay was 0.625% (0.75% DMSO was supplemented to the Compound Loading Buffer for a final DMSO concentration of 0.625%). This assay dilution protocol was adjusted to enable a higher dose range to be tested in the presence of HS or if the final assay volume was altered. • 2) Hexyl Dye Solution was prepared. • 3) Cell plates were prepared. On the day of the assay, the media was aspirated, and the cells were washed three times with 80 μL of Bath-1 buffer, maintaining 25 μL residual volume in each well. • 4) 25 μL per well of Hexyl Dye Solution was dispensed into the cell plates. The cells were incubated for 20 minutes at room temperature or ambient conditions in darkness. • 5) 45 μL per well of Compound Loading Buffer was dispensed into compound plates. • 6) The cell plates were washed three times with 80 μL per well of Bath-1 Buffer, leaving 25 µL of residual volume. Then 25 μL per well from compound plate was transferred to each cell plate. The mixture was incubated for 30 minutes at room temperature/ambient conditions. • 7) The cell plate containing compound was read on E-VIPR using the current-controlled amplifier to deliver stimulation wave pulses using a symmetrical biphasic waveform. […]
# human NaV 1.8, sequence (Q9Y5Y9 whole entry, looked up): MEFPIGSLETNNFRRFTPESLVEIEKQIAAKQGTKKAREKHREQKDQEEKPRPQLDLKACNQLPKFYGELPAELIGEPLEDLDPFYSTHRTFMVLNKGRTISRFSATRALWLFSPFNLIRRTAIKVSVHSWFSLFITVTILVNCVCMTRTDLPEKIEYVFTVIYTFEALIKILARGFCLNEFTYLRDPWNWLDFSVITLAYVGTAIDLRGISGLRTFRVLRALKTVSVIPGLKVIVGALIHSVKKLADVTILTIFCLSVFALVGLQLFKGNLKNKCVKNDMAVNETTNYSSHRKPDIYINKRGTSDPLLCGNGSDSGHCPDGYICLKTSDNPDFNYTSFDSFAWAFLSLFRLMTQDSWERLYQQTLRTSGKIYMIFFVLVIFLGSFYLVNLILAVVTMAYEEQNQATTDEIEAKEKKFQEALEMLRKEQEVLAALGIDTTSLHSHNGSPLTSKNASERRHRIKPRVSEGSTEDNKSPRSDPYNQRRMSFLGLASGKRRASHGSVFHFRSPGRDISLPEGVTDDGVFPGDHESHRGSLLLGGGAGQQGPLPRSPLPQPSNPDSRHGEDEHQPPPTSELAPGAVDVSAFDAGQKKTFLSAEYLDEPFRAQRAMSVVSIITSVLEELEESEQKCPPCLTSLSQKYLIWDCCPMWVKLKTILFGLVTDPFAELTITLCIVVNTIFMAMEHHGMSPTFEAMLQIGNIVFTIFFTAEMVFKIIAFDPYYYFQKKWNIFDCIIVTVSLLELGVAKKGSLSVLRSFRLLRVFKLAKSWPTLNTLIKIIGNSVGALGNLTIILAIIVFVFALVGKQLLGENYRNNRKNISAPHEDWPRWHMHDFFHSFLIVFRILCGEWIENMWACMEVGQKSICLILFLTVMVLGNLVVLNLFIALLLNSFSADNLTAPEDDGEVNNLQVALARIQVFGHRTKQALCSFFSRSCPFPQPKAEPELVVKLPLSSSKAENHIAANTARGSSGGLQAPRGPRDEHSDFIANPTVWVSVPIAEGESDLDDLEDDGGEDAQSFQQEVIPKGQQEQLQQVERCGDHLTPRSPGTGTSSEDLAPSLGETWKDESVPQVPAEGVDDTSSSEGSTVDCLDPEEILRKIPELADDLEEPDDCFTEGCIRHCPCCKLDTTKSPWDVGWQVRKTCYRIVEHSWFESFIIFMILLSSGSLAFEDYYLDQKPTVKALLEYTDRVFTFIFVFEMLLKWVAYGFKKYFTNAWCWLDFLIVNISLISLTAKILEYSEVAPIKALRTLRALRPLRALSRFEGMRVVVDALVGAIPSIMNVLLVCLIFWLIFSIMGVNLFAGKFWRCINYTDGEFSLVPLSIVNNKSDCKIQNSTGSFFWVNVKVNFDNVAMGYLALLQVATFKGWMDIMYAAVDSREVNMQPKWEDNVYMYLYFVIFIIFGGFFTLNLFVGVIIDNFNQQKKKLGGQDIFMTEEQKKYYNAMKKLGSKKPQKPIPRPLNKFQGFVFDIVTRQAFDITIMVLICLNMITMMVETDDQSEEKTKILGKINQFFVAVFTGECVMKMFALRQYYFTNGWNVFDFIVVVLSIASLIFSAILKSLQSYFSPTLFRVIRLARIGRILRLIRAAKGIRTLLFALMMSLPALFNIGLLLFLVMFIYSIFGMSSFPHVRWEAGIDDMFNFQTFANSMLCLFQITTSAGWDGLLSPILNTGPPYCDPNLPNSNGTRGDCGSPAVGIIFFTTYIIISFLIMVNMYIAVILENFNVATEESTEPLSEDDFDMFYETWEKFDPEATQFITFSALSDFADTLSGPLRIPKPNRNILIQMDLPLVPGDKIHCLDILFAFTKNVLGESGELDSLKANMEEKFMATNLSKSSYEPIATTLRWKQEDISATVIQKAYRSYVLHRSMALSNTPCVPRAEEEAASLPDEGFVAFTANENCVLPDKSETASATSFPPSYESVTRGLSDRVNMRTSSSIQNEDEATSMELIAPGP
row,Compound,pIC50
1,4-[[2-(4-fluoro-2-methoxy-phenyl)-4-(trifluoromethyl)benzoyl]amino]pyridine-2-carboxamide [Compound 175],< 5.52
2,"COc1cc(OC(F)(F)F)ccc1Oc1cc(C2CCC(C(F)(F)F)CC2)ccc1C(=O)Nc1ccnc(C(N)=O)c1 (single isomer, unassigned) [158 (first diastereomer), 4-[[2-[2-methoxy-4-(trifluoromethoxy)phenoxy]-4-[4-(trifluoromethyl)cyclohexyl]benzoyl]amino]pyridine-2-carboxamide]",6.02
3,"COc1cc(OC(F)(F)F)ccc1Oc1cc(C2CCC(C(F)(F)F)CC2)ccc1C(=O)Nc1ccnc(C(N)=O)c1 (single isomer, unassigned) [158 (second diastereomer), 4-[[2-[2-methoxy-4-(trifluoromethoxy)phenoxy]-4-[4-(trifluoromethyl)cyclohexyl]benzoyl]amino]pyridine-2-carboxamide]",6.40
4,"COc1cc(OC(F)(F)F)ccc1Oc1cc(C2CCC(C(F)(F)F)CC2)cc(F)c1C(=O)Nc1ccnc(C(N)=O)c1 (single isomer, unassigned) [168 (first diastereomer), 4-[[2-fluoro-6-[2-methoxy-4-(trifluoromethoxy)phenoxy]-4-[4-(trifluoromethyl)cyclohexyl]benzoyl]amino]pyridine-2-carboxamide]",7.74
5,"COc1cc(OC(F)(F)F)ccc1Oc1cc(C2CCC(C(F)(F)F)CC2)cc(F)c1C(=O)Nc1ccnc(C(N)=O)c1 (single isomer, unassigned) [168 (second diastereomer), 4-[[2-fluoro-6-[2-methoxy-4-(trifluoromethoxy)phenoxy]-4-[4-(trifluoromethyl)cyclohexyl]benzoyl]amino]pyridine-2-carboxamide]",8.00
6,"COc1cc(OC(F)(F)F)ccc1Oc1cc(C2CCC(C(C)(C)C)CC2)cc(F)c1C(=O)Nc1ccnc(C(N)=O)c1 (single isomer, unassigned) [169 (first diastereomer), 4-[[4-(4-tert-butylcyclohexyl)-2-fluoro-6-[2-methoxy-4-(trifluoromethoxy)phenoxy]benzoyl]amino]pyridine-2-carboxamide]",7.96
7,"COc1cc(OC(F)(F)F)ccc1Oc1cc(C2CCC(C(C)(C)C)CC2)cc(F)c1C(=O)Nc1ccnc(C(N)=O)c1 (single isomer, unassigned) [169 (second diastereomer), 4-[[4-(4-tert-butylcyclohexyl)-2-fluoro-6-[2-methoxy-4-(trifluoromethoxy)phenoxy]benzoyl]amino]pyridine-2-carboxamide]",7.68
8,"[2H]C([2H])([2H])Oc1cc(OC(F)(F)F)ccc1Oc1cc(C2CCC(OC)CC2)cc(F)c1C(=O)Nc1ccnc(C(N)=O)c1 (single isomer, unassigned) [1017 (first diastereomer), 4-[[2-fluoro-4-(4-methoxycyclohexyl)-6-[2-(trideuteriomethoxy)-4-(trifluoromethoxy)phenoxy]benzoyl]amino]pyridine-2-carboxamide]",6.60
9,"[2H]C([2H])([2H])Oc1cc(OC(F)(F)F)ccc1Oc1cc(C2CCC(OC)CC2)cc(F)c1C(=O)Nc1ccnc(C(N)=O)c1 (single isomer, unassigned) [1017 (second diastereomer), 4-[[2-fluoro-4-(4-methoxycyclohexyl)-6-[2-(trideuteriomethoxy)-4-(trifluoromethoxy)phenoxy]benzoyl]amino]pyridine-2-carboxamide]",7.77
10,"COc1cc(OC(F)(F)F)ccc1Oc1cc(C2CCC(OC)CC2)ccc1C(=O)Nc1ccnc(C(N)=O)c1 (single isomer, unassigned) [1032 (first diastereomer), 4-[[4-(4-methoxycyclohexyl)-2-[2-methoxy-4-(trifluoromethoxy)phenoxy]benzoyl]amino]pyridine-2-carboxamide]",6.28
11,"COc1cc(OC(F)(F)F)ccc1Oc1cc(C2CCC(OC)CC2)ccc1C(=O)Nc1ccnc(C(N)=O)c1 (single isomer, unassigned) [1032 (second diastereomer), 4-[[4-(4-methoxycyclohexyl)-2-[2-methoxy-4-(trifluoromethoxy)phenoxy]benzoyl]amino]pyridine-2-carboxamide]",5.81
12,"COc1nc(Cl)ccc1Oc1ccc(C(F)(F)F)cc1C(=O)Nc1ccnc(C(N)=O)c1 [Compound 1, 4-[[2-[(6-Chloro-2-Methoxy-3-Pyridyl)Oxy]-5-(Trifluoromethyl)Benzoyl]Amino]Pyridine-2-Carboxamide]",6.41
13,"CC(C)Oc1ccc(Oc2ccc(C(F)(F)F)cc2C(=O)Nc2ccnc(C(N)=O)c2)cc1Cl [Compound 2, 4-[[2-(3-chloro-4-isopropoxy-phenoxy)-5-(trifluoromethyl)benzoyl]amino]pyridine-2-carboxamide]",6.35
14,"Cc1cc(Oc2ccc(C(F)(F)F)cc2C(=O)Nc2ccnc(C(N)=O)c2)ccc1F [Compound 3, 4-[[2-(4-fluoro-3-methyl-phenoxy)-5-(trifluoromethyl)benzoyl]amino]pyridine-2-carboxamide]",5.85
15,"Cc1cc(F)ccc1Oc1ccc(C(F)(F)F)cc1C(=O)Nc1ccnc(C(N)=O)c1 [Compound 4, 4-[[2-(4-fluoro-2-methyl-phenoxy)-5-(trifluoromethyl)benzoyl]amino]pyridine-2-carboxamide]",6.19
16,"NC(=O)c1cc(NC(=O)c2cc(C(F)(F)F)ccc2Oc2ccc(F)cc2Cl)ccn1 [Compound 5, 4-[[2-(2-chloro-4-fluoro-phenoxy)-5-(trifluoromethyl)benzoyl]amino]pyridine-2-carboxamide]",5.92
17,"NC(=O)c1cc(NC(=O)c2cc(C(F)(F)F)ccc2Oc2ccc(F)c(F)c2)ccn1 [Compound 6, 4-[[2-(3,4-difluorophenoxy)-5-(trifluoromethyl)benzoyl]amino]pyridine-2-carboxamide]",5.77
18,"CC(C)Oc1ccc(Oc2ccc(C(F)(F)F)cc2C(=O)Nc2ccnc(C(N)=O)c2)cc1F [Compound 7, 4-[[2-(3-fluoro-4-isopropoxy-phenoxy)-5-(trifluoromethyl)benzoyl]amino]pyridine-2-carboxamide]",6.18
19,"COc1cc(F)ccc1Oc1ccc(C(F)(F)F)cc1C(=O)Nc1ccnc(C(N)=O)c1 [Compound 8, 4-[[2-(4-fluoro-2-methoxy-phenoxy)-5-(trifluoromethyl)benzoyl]amino]pyridine-2-carboxamide]",6.29
20,"CC(C)Oc1ccc(Oc2ccc(C(F)(F)F)cc2C(=O)Nc2ccnc(C(N)=O)c2)cc1 [Compound 9, 4-[[2-(4-isopropoxyphenoxy)-5-(trifluoromethyl)benzoyl]amino]pyridine-2-carboxamide]",5.89
21,"NC(=O)c1cc(NC(=O)c2cc(C(F)(F)F)ccc2Oc2ccc(F)c3c2OCC3)ccn1 [Compound 10, 4-[[2-[(4-fluoro-2,3-dihydrobenzofuran-7-yl)oxy]-5-(trifluoromethyl)benzoyl]amino]pyridine-2-carboxamide]",6.19
22,"NC(=O)c1cc(NC(=O)c2cc(C(F)(F)F)ccc2Oc2ccc(F)c(Cl)c2)ccn1 [Compound 11, 4-[[2-(3-chloro-4-fluoro-phenoxy)-5-(trifluoromethyl)benzoyl]amino]pyridine-2-carboxamide]",5.85
23,"COc1c(F)cccc1Oc1ccc(C(F)(F)F)cc1C(=O)Nc1ccnc(C(N)=O)c1 [Compound 12, 4-[[2-(3-fluoro-2-methoxy-phenoxy)-5-(trifluoromethyl)benzoyl]amino]pyridine-2-carboxamide]",5.68
24,"NC(=O)c1cc(NC(=O)c2cc(C(F)(F)F)ccc2Oc2ccc(OC3CCCCC3)cc2)ccn1 [Compound 13, 4-[[2-[4-(cyclohexoxy)phenoxy]-5-(trifluoromethyl)benzoyl]amino]pyridine-2-carboxamide]",< 5.52
